Assay results: patent US6689773B2, “Uracil substituted phenyl sulfamoyl carboxamides” (BASF Aktiengesellschaft, priority 2000, dated 2004)

Assays:
Format in all cases: in vivo
[1] = tested on: CHEAL, Lambsquarters, Chenopodium album, L. Common; test: Preemergence herbicidal evaluation (Example 148); conditions: rating scale 0-9, two to four weeks after treatment
In short: (§1)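 Applied: aqueous acetone solution, ~0.125–0.250 kg/ha, sprayed on soil just after seeding. Read: visual plant appearance against control, 2–4 weeks post-spray.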

[2] = tested on: SETVI, Green foxtail, Setaria viridis, (L.)Beau; test: Preemergence herbicidal evaluation (Example 148); conditions: rating scale 0-9, two to four weeks after treatment
In short: as §1

[3] = tested on: ABUTH, Velvetleaf, Abutilon theophrasti, Medic.; test: Preemergence herbicidal evaluation (Example 148); conditions: rating scale 0-9, two to four weeks after treatment
In short: as §1

[4] = tested on: TRZAW, Winter wheat, Tritium Aestivum, L. (Winter); test: Preemergence herbicidal evaluation (Example 148); conditions: rating scale 0-9, two to four weeks after treatment
In short: as §1

[5] = tested on: IPOHE, Morningglory, Ivyleaf, Ipomoea hederacea, (L)Jacq.; test: Preemergence herbicidal evaluation (Example 148); conditions: rating scale 0-9, two to four weeks after treatment
In short: as §1

[6] = tested on: GLXMA, Soybean, Glycine max, (L.) Merr.; test: Preemergence herbicidal evaluation (Example 148); conditions: rating scale 0-9, two to four weeks after treatment
In short: as §1

[7] = tested on: AMBEL, Ragweed, Common, Ambrosia artemiisifolia, L.; test: Preemergence herbicidal evaluation (Example 148); conditions: rating scale 0-9, two to four weeks after treatment
In short: as §1

[8] = tested on: ECHCG, Barnyardgrass, Echinochloa crusgalli, (L.)Beau; test: Preemergence herbicidal evaluation (Example 148); conditions: rating scale 0-9, two to four weeks after treatment
In short: as §1

[9] = tested on: XANST, Cocklebur, Xanthium strumariam; test: Preemergence herbicidal evaluation (Example 148); conditions: rating scale 0-9, two to four weeks after treatment
In short: as §1

[10] = tested on: DIGSA, Crabgrass, (Hairy) L, Digitaria sanguinalis, (L)Scop; test: Preemergence herbicidal evaluation (Example 148); conditions: rating scale 0-9, two to four weeks after treatment
In short: as §1

[11] = tested on: ZEAMX, Field corn, Zea mays L.; test: Preemergence herbicidal evaluation (Example 148); conditions: rating scale 0-9, two to four weeks after treatment
In short: as §1

[12] = tested on: ALOMY, Blackgrass, Alopecurus myosuroides; test: Preemergence herbicidal evaluation (Example 148); conditions: rating scale 0-9, two to four weeks after treatment
In short: as §1

[13] = tested on: CHEAL, Lambsquarters, Chenopodium album, L. Common; test: Postemergence herbicidal evaluation (Example 147); conditions: rating scale 0-9, two to three weeks after treatment
In short: (§2)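 ~2-wk seedlings; spray 40 psi; 0.016–0.032 kg/ha a.i. in acetone/water 80/20 + 1.0% methylated seed oil; greenhouse; rated 0–9 visually at 2–3 wk; multiple tests averaged.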

[14] = tested on: SETVI, Green foxtail, Setaria viridis, (L.)Beau; test: Postemergence herbicidal evaluation (Example 147); conditions: rating scale 0-9, two to three weeks after treatment
In short: as §2

[15] = tested on: ABUTH, Velvetleaf, Abutilon theophrasti, Medic.; test: Postemergence herbicidal evaluation (Example 147); conditions: rating scale 0-9, two to three weeks after treatment
In short: as §2

[16] = tested on: TRZAW, Winter wheat, Tritium Aestivum, L. (Winter); test: Postemergence herbicidal evaluation (Example 147); conditions: rating scale 0-9, two to three weeks after treatment
In short: as §2

[17] = tested on: IPOHE, Morningglory, Ivyleaf, Ipomoea hederacea, (L)Jacq.; test: Postemergence herbicidal evaluation (Example 147); conditions: rating scale 0-9, two to three weeks after treatment
In short: as §2

[18] = tested on: GLXMA, Soybean, Glycine max, (L.) Merr.; test: Postemergence herbicidal evaluation (Example 147); conditions: rating scale 0-9, two to three weeks after treatment
In short: as §2

[19] = tested on: AMBEL, Ragweed, Common, Ambrosia artemiisifolia, L.; test: Postemergence herbicidal evaluation (Example 147); conditions: rating scale 0-9, two to three weeks after treatment
In short: as §2

[20] = tested on: ECHCG, Barnyardgrass, Echinochloa crusgalli, (L.)Beau; test: Postemergence herbicidal evaluation (Example 147); conditions: rating scale 0-9, two to three weeks after treatment
In short: as §2

[21] = tested on: XANST, Cocklebur, Xanthium strumariam; test: Postemergence herbicidal evaluation (Example 147); conditions: rating scale 0-9, two to three weeks after treatment
In short: as §2

[22] = tested on: DIGSA, Crabgrass, (Hairy) L, Digitaria sanguinalis, (L)Scop; test: Postemergence herbicidal evaluation (Example 147); conditions: rating scale 0-9, two to three weeks after treatment
In short: as §2

[23] = tested on: ZEAMX, Field corn, Zea mays L.; test: Postemergence herbicidal evaluation (Example 147); conditions: rating scale 0-9, two to three weeks after treatment
In short: as §2

[24] = tested on: ALOMY, Blackgrass, Alopecurus myosuroides; test: Postemergence herbicidal evaluation (Example 147); conditions: rating scale 0-9, two to three weeks after treatment
In short: as §2

For `CCC(C)N(C)S(=O)(=O)NC(=O)c1cc(-n2c(=O)cc(C(F)(F)F)n(C)c2=O)c(F)cc1Cl` (stereo not drawn) [Example 69], the “Preemergence herbicidal rating CHEAL” value ([1]; rate 0.125 kg/ha) was 9.0, the “Preemergence herbicidal rating CHEAL” value ([1]; rate 0.25 kg/ha) was 9.0 and the “Preemergence herbicidal rating SETVI” value ([2]; rate 0.125 kg/ha) was 0.0. For the same molecule, the “Preemergence herbicidal rating SETVI” value ([2]; rate 0.25 kg/ha) was 1.0, the “Preemergence herbicidal rating ABUTH” value ([3]; rate 0.125 kg/ha) was 9.0 and the “Preemergence herbicidal rating ABUTH” value ([3]; rate 0.25 kg/ha) was 9.0. The “Preemergence herbicidal rating TRZAW” value ([4]; rate 0.125 kg/ha) was 0.0, the “Preemergence herbicidal rating TRZAW” value ([4]; rate 0.25 kg/ha) was 0.0 and the “Preemergence herbicidal rating IPOHE” value ([5]; rate 0.125 kg/ha) was 9.0. The “Preemergence herbicidal rating IPOHE” value ([5]; rate 0.25 kg/ha) was 9.0, the “Preemergence herbicidal rating GLXMA” value ([6]; rate 0.125 kg/ha) was 0.0 and the “Preemergence herbicidal rating GLXMA” value ([6]; rate 0.25 kg/ha) was 3.0. The “Preemergence herbicidal rating AMBEL” value ([7]; rate 0.125 kg/ha) was 8.0, the “Preemergence herbicidal rating AMBEL” value ([7]; rate 0.25 kg/ha) was 9.0 and the “Preemergence herbicidal rating ECHCG” value ([8]; rate 0.125 kg/ha) was 2.0. For the same molecule, the “Preemergence herbicidal rating ECHCG” value ([8]; rate 0.25 kg/ha) was 3.0, the “Preemergence herbicidal rating XANST” value ([9]; rate 0.125 kg/ha) was 3.0 and the “Preemergence herbicidal rating XANST” value ([9]; rate 0.25 kg/ha) was 4.0. The “Preemergence herbicidal rating DIGSA” value ([10]; rate 0.125 kg/ha) was 3.0, the “Preemergence herbicidal rating DIGSA” value ([10]; rate 0.25 kg/ha) was 3.0 and the “Preemergence herbicidal rating ZEAMX” value ([11]; rate 0.125 kg/ha) was 2.0. For the same molecule, the “Preemergence herbicidal rating ZEAMX” value ([11]; rate 0.25 kg/ha) was 3.0, the “Preemergence herbicidal rating ALMOY” value ([12]; rate 0.125 kg/ha) was 0.0 and the “Preemergence herbicidal rating ALMOY” value ([12]; rate 0.25 kg/ha) was 0.0. For the same molecule, the “Postemergence herbicidal rating CHEAL” value ([13]; rate 0.016 kg/ha) was 8.0, the “Postemergence herbicidal rating CHEAL” value ([13]; rate 0.032 kg/ha) was 8.0 and the “Postemergence herbicidal rating SETVI” value ([14]; rate 0.016 kg/ha) was 5.0. For the same molecule, the “Postemergence herbicidal rating SETVI” value ([14]; rate 0.032 kg/ha) was 6.0, the “Postemergence herbicidal rating ABUTH” value ([15]; rate 0.016 kg/ha) was 9.0 and the “Postemergence herbicidal rating ABUTH” value ([15]; rate 0.032 kg/ha) was 9.0. The “Postemergence herbicidal rating TRZAW” value ([16]; rate 0.016 kg/ha) was 5.0, the “Postemergence herbicidal rating TRZAW” value ([16]; rate 0.032 kg/ha) was 6.5 and the “Postemergence herbicidal rating IPOHE” value ([17]; rate 0.016 kg/ha) was 9.0. For the same molecule, the “Postemergence herbicidal rating IPOHE” value ([17]; rate 0.032 kg/ha) was 9.0, the “Postemergence herbicidal rating GLXMA” value ([18]; rate 0.016 kg/ha) was 8.0 and the “Postemergence herbicidal rating GLXMA” value ([18]; rate 0.032 kg/ha) was 8.0. For the same molecule, the “Postemergence herbicidal rating AMBEL” value ([19]; rate 0.016 kg/ha) was 9.0, the “Postemergence herbicidal rating AMBEL” value ([19]; rate 0.032 kg/ha) was 9.0 and the “Postemergence herbicidal rating ECHCG” value ([20]; rate 0.016 kg/ha) was 5.0. The “Postemergence herbicidal rating ECHCG” value ([20]; rate 0.032 kg/ha) was 7.0, the “Postemergence herbicidal rating XANST” value ([21]; rate 0.016 kg/ha) was 9.0 and the “Postemergence herbicidal rating XANST” value ([21]; rate 0.032 kg/ha) was 9.0. For the same molecule, the “Postemergence herbicidal rating DIGSA” value ([22]; rate 0.016 kg/ha) was 4.0, the “Postemergence herbicidal rating DIGSA” value ([22]; rate 0.032 kg/ha) was 6.0 and the “Postemergence herbicidal rating ZEAMX” value ([23]; rate 0.016 kg/ha) was 7.0. The “Postemergence herbicidal rating ZEAMX” value ([23]; rate 0.032 kg/ha) was 7.5, the “Postemergence herbicidal rating ALMOY” value ([24]; rate 0.016 kg/ha) was 1.0 and the “Postemergence herbicidal rating ALMOY” value ([24]; rate 0.032 kg/ha) was 2.0.

`C=CCN(C)S(=O)(=O)NC(=O)c1cc(-n2c(=O)cc(C(F)(F)F)n(C)c2=O)c(F)cc1Cl` [Example 59] was tested, and the “Preemergence herbicidal rating CHEAL” value ([1]; rate 0.125 kg/ha) was 9.0, the “Preemergence herbicidal rating CHEAL” value ([1]; rate 0.25 kg/ha) was 9.0 and the “Preemergence herbicidal rating SETVI” value ([2]; rate 0.125 kg/ha) was 4.0. The “Preemergence herbicidal rating SETVI” value ([2]; rate 0.25 kg/ha) was 9.0, the “Preemergence herbicidal rating ABUTH” value ([3]; rate 0.125 kg/ha) was 9.0 and the “Preemergence herbicidal rating ABUTH” value ([3]; rate 0.25 kg/ha) was 9.0. The “Preemergence herbicidal rating TRZAW” value ([4]; rate 0.125 kg/ha) was 0.0, the “Preemergence herbicidal rating TRZAW” value ([4]; rate 0.25 kg/ha) was 0.0 and the “Preemergence herbicidal rating IPOHE” value ([5]; rate 0.125 kg/ha) was 9.0. For the same molecule, the “Preemergence herbicidal rating IPOHE” value ([5]; rate 0.25 kg/ha) was 9.0, the “Preemergence herbicidal rating GLXMA” value ([6]; rate 0.125 kg/ha) was 2.0 and the “Preemergence herbicidal rating GLXMA” value ([6]; rate 0.25 kg/ha) was 8.0. The “Preemergence herbicidal rating AMBEL” value ([7]; rate 0.125 kg/ha) was 9.0, the “Preemergence herbicidal rating AMBEL” value ([7]; rate 0.25 kg/ha) was 9.0 and the “Preemergence herbicidal rating ECHCG” value ([8]; rate 0.125 kg/ha) was 0.0. For the same molecule, the “Preemergence herbicidal rating ECHCG” value ([8]; rate 0.25 kg/ha) was 3.0, the “Preemergence herbicidal rating XANST” value ([9]; rate 0.125 kg/ha) was 0.0 and the “Preemergence herbicidal rating XANST” value ([9]; rate 0.25 kg/ha) was 9.0. For the same molecule, the “Preemergence herbicidal rating DIGSA” value ([10]; rate 0.125 kg/ha) was 3.0, the “Preemergence herbicidal rating DIGSA” value ([10]; rate 0.25 kg/ha) was 7.0 and the “Preemergence herbicidal rating ZEAMX” value ([11]; rate 0.125 kg/ha) was 0.0. The “Preemergence herbicidal rating ZEAMX” value ([11]; rate 0.25 kg/ha) was 2.0, the “Preemergence herbicidal rating ALMOY” value ([12]; rate 0.125 kg/ha) was 0.0 and the “Preemergence herbicidal rating ALMOY” value ([12]; rate 0.25 kg/ha) was 4.0. The “Postemergence herbicidal rating CHEAL” value ([13]; rate 0.016 kg/ha) was 7.0, the “Postemergence herbicidal rating CHEAL” value ([13]; rate 0.032 kg/ha) was 8.0 and the “Postemergence herbicidal rating SETVI” value ([14]; rate 0.016 kg/ha) was 7.0. For the same molecule, the “Postemergence herbicidal rating SETVI” value ([14]; rate 0.032 kg/ha) was 8.0, the “Postemergence herbicidal rating ABUTH” value ([15]; rate 0.016 kg/ha) was 9.0 and the “Postemergence herbicidal rating ABUTH” value ([15]; rate 0.032 kg/ha) was 9.0. For the same molecule, the “Postemergence herbicidal rating TRZAW” value ([16]; rate 0.016 kg/ha) was 4.0, the “Postemergence herbicidal rating TRZAW” value ([16]; rate 0.032 kg/ha) was 4.5 and the “Postemergence herbicidal rating IPOHE” value ([17]; rate 0.016 kg/ha) was 9.0. For the same molecule, the “Postemergence herbicidal rating IPOHE” value ([17]; rate 0.032 kg/ha) was 9.0, the “Postemergence herbicidal rating GLXMA” value ([18]; rate 0.016 kg/ha) was 8.0 and the “Postemergence herbicidal rating GLXMA” value ([18]; rate 0.032 kg/ha) was 8.5. For the same molecule, the “Postemergence herbicidal rating AMBEL” value ([19]; rate 0.016 kg/ha) was 7.0, the “Postemergence herbicidal rating AMBEL” value ([19]; rate 0.032 kg/ha) was 9.0 and the “Postemergence herbicidal rating ECHCG” value ([20]; rate 0.016 kg/ha) was 6.0. For the same molecule, the “Postemergence herbicidal rating ECHCG” value ([20]; rate 0.032 kg/ha) was 7.0, the “Postemergence herbicidal rating XANST” value ([21]; rate 0.016 kg/ha) was 9.0 and the “Postemergence herbicidal rating XANST” value ([21]; rate 0.032 kg/ha) was 9.0. The “Postemergence herbicidal rating DIGSA” value ([22]; rate 0.016 kg/ha) was 4.0, the “Postemergence herbicidal rating DIGSA” value ([22]; rate 0.032 kg/ha) was 5.0 and the “Postemergence herbicidal rating ZEAMX” value ([23]; rate 0.016 kg/ha) was 8.0. The “Postemergence herbicidal rating ZEAMX” value ([23]; rate 0.032 kg/ha) was 8.0, the “Postemergence herbicidal rating ALMOY” value ([24]; rate 0.016 kg/ha) was 3.0 and the “Postemergence herbicidal rating ALMOY” value ([24]; rate 0.032 kg/ha) was 4.0.
